# Assay results published in patent US9834514B2, “Antibiotic sensitivity-restoring and photosensitive agents” (New Mexico Tech Research Foundation, priority 2015, dated 2017).
# Tests used:
# VRE = experiment: Resensitization to antibiotics (log reduction, TABLE 29); assay type: cell-based, Enterococcus faecalis
# [1] = tested on: MRSA isolates (S. aureus ATCC 33591, BAA-44, BAA-1707, BAA-1717, BAA-1720, BAA-1747, BAA-1754, BAA-1761, BAA-1763, BAA-1764, BAA-1766); experiment: Combination effects of compounds 7-11 and antibiotics on MRSA isolates (turbidity); assay type: cell-based
# Source text: Inhibition resulting from co-treatment of a broth suspension with a compound of the invention and an antibiotic was compared to broth suspensions subjected to each individual treatment. A visual observation of inhibition with the unaided eye upon co-treatment of the broth suspensions, based on turbidity, was considered synergistic.
# Exceptions to reading complete inhibition of growth included Gram-positive cocci. For Gram-positive cocci, trailing growth was observed. For these species, the MICs were read at the first spot where trailing was observed, and tiny buttons of growth were ignored. […]
# Two-fold dilutions of the antibiotics were prepared in a liquid growth medium dispensed in test tubes. […] The antibiotic-containing tubes were inoculated with a standard bacterial suspension of 5×10^5 CFU/mL. Following an overnight incubation (16-20 hrs) at 35±2° C. under ambient air, the tubes were examined for visible bacterial growth based on turbidity. The lowest concentration of antibiotic that prevented growth was determined to be the MIC. An incubation time of 24 hrs was used to determine the MICs of oxacillin and vancomycin.
# [2] = tested on: Klebsiella pneumoniae (CRE, ATCC BAA-1705); experiment: Cell killing of CRE with compounds in presence or absence of PMB (CFU/mL); assay type: cell-based; conditions: for PMB + Comp: PMB @ 0.2 μg/mL + Comp @ 20 µM; for Comp @ 20 µM: compound alone
# Protocol: Klebsiella pneumoniae (CRE, ATCC BAA-1705) was grown in TSB overnight at 37° C. and diluted to about 5×10^5 CFU/mL using a McFarland Latex Turbidity standard (0.5). One mL of the cell suspension was transferred to a glass culture test tube. PMB was added to the cell suspension resulting in a final concentration of 200 μg/mL of PMB. The cell suspension was incubated at 37° C. on a rotary shaking incubator at 150 rpm for 4 hours. Compounds 1, 7, 8, 9, 10, and 11 were added to the cell suspension, resulting in a concentration of 20 μM for each of the compounds. The cell suspensions containing the compounds were incubated at 37° C. on a rotary shaking incubator at 150 rpm for 4 hours. Each sample was diluted tenfold to a 10^−5 dilution. Ten 10 microliters of each dilution from each sample was dripped onto a TSA plate and allowed to streak down the plate. The agar plates were incubated at 37° C. for 18-24 hours. Colony counts were performed and CFU/mL values were calculated.
# The MICs of PMB and compounds 7-11 were determined against Klebsiella pneumoniae (CRE, ATCC BAA-1705). […] After the incubation with PMB, each of the compounds was added at a concentration of 20 μM, and the samples were incubated for an additional 18 hours. A sample was taken and diluted ten-fold in media. Ten microliters of each dilution was then drip-streaked onto an agar plate and incubated overnight at 37° C. Colony counts were then performed and the concentrations of cells (CFU/mL) were calculated.
# S. aureus (ATCC 29213) = experiment: MIC against drug sensitive S. aureus; assay type: cell-based; conditions: Staphylococcus aureus, ATCC29213; ATCC 29213; read-out: S. aureus MIC
# HeLa cells = experiment: Toxicity (IC50) on HeLa cells; assay type: cell-based, human; conditions: for IC50: Homo sapiens, cancerous cervical epithelium HeLa cells
# Protocol: The toxicities of the compounds of the invention were determined for human cancerous cervical epithelium HeLa and normal lung fibroblast WI38 cells. The toxicities of EPIs INF-55 and INF-55Cl were quantified as controls. […] TABLE 2 compares the toxicity of compounds 7-11 on HeLa cells and normal WI38 cells.
smiles,measurement,setting,value
Brc1ccc(/N=N/c2c[nH]c3ccccc23)cc1 [Compound 8],Log Reduction,"VRE; compound 7.5 μM, Tetracycline (1.5 μg/mL)",3-4
same,Log Reduction,"VRE; compound 7.5 μM, Vancomycin (3.5 μg/mL)",3
same,combination effect with Gentamycin,[1]; MRSA ATCC 33591,No Synergy
same,combination effect with Norfloxacin,[1]; MRSA ATCC 33591,No Synergy
same,combination effect with Oxacillin,[1]; MRSA ATCC 33591,No Synergy
same,combination effect with Tetracycline,[1]; MRSA ATCC 33591,No Synergy
same,combination effect with Vancomycin,[1]; MRSA ATCC 33591,Susceptible
same,combination effect with Norfloxacin,[1]; MRSA ATCC BAA-44,No Synergy
same,combination effect with Oxacillin,[1]; MRSA ATCC BAA-44,No Synergy
same,combination effect with Tetracycline,[1]; MRSA ATCC BAA-44,Susceptible
same,combination effect with Vancomycin,[1]; MRSA ATCC BAA-44,Susceptible
same,combination effect with Gentamycin,[1]; MRSA ATCC BAA-1707,Susceptible
same,combination effect with Norfloxacin,[1]; MRSA ATCC BAA-1707,Susceptible
same,combination effect with Oxacillin,[1]; MRSA ATCC BAA-1707,Susceptible
same,combination effect with Tetracycline,[1]; MRSA ATCC BAA-1707,No Synergy
same,combination effect with Vancomycin,[1]; MRSA ATCC BAA-1707,Susceptible
same,combination effect with Gentamycin,[1]; MRSA ATCC BAA-1717,Susceptible
same,combination effect with Norfloxacin,[1]; MRSA ATCC BAA-1717,Susceptible
same,combination effect with Oxacillin,[1]; MRSA ATCC BAA-1717,Synergy
same,combination effect with Tetracycline,[1]; MRSA ATCC BAA-1717,Susceptible
same,combination effect with Vancomycin,[1]; MRSA ATCC BAA-1717,Susceptible
same,combination effect with Gentamycin,[1]; MRSA ATCC BAA-1720,Susceptible
same,combination effect with Norfloxacin,[1]; MRSA ATCC BAA-1720,No Synergy
same,combination effect with Oxacillin,[1]; MRSA ATCC BAA-1720,Synergy
same,combination effect with Tetracycline,[1]; MRSA ATCC BAA-1720,Susceptible
same,combination effect with Vancomycin,[1]; MRSA ATCC BAA-1720,Susceptible
same,combination effect with Gentamycin,[1]; MRSA ATCC BAA-1747,Susceptible
same,combination effect with Norfloxacin,[1]; MRSA ATCC BAA-1747,Susceptible
same,combination effect with Oxacillin,[1]; MRSA ATCC BAA-1747,Susceptible
same,combination effect with Tetracycline,[1]; MRSA ATCC BAA-1747,Susceptible
same,combination effect with Vancomycin,[1]; MRSA ATCC BAA-1747,Susceptible
same,combination effect with Gentamycin,[1]; MRSA ATCC BAA-1754,Susceptible
same,combination effect with Norfloxacin,[1]; MRSA ATCC BAA-1754,Susceptible
same,combination effect with Oxacillin,[1]; MRSA ATCC BAA-1754,Synergy
same,combination effect with Tetracycline,[1]; MRSA ATCC BAA-1754,Susceptible
same,combination effect with Vancomycin,[1]; MRSA ATCC BAA-1754,Susceptible
same,combination effect with Gentamycin,[1]; MRSA ATCC BAA-1761,Susceptible
same,combination effect with Norfloxacin,[1]; MRSA ATCC BAA-1761,No Synergy
same,combination effect with Oxacillin,[1]; MRSA ATCC BAA-1761,Susceptible
same,combination effect with Tetracycline,[1]; MRSA ATCC BAA-1761,Susceptible
same,combination effect with Vancomycin,[1]; MRSA ATCC BAA-1761,Susceptible
same,combination effect with Gentamycin,[1]; MRSA ATCC BAA-1763,Susceptible
same,combination effect with Norfloxacin,[1]; MRSA ATCC BAA-1763,No Synergy
same,combination effect with Oxacillin,[1]; MRSA ATCC BAA-1763,Synergy
same,combination effect with Tetracycline,[1]; MRSA ATCC BAA-1763,Susceptible
same,combination effect with Vancomycin,[1]; MRSA ATCC BAA-1763,Susceptible
same,combination effect with Gentamycin,[1]; MRSA ATCC BAA-1764,Susceptible
same,combination effect with Norfloxacin,[1]; MRSA ATCC BAA-1764,Susceptible
same,combination effect with Oxacillin,[1]; MRSA ATCC BAA-1764,Synergy
same,combination effect with Tetracycline,[1]; MRSA ATCC BAA-1764,Susceptible
same,combination effect with Vancomycin,[1]; MRSA ATCC BAA-1764,Susceptible
same,combination effect with Gentamycin,[1]; MRSA ATCC BAA-1766,Susceptible
same,combination effect with Norfloxacin,[1]; MRSA ATCC BAA-1766,Susceptible
same,combination effect with Oxacillin,[1]; MRSA ATCC BAA-1766,Synergy
same,combination effect with Tetracycline,[1]; MRSA ATCC BAA-1766,Susceptible
same,combination effect with Vancomycin,[1]; MRSA ATCC BAA-1766,Susceptible
same,PMB + Comp,[2],None Detected
same,Comp @ 20 µM,[2],6.6 × 10^8 CFU/mL
same,MIC,S. aureus (ATCC 29213),8 µM
same,IC50,HeLa cells,31.6 µM
Clc1ccc(Oc2c(-c3ccc(Cl)cc3)[nH]c3ccccc23)cc1 [Compound 10],Log Reduction,"VRE; compound 2 μM, Dicloxacillin (10 μg/mL)",5
same,Log Reduction,"VRE; compound 2 μM, Norfloxacin (5 μg/mL)",5-6
same,combination effect with Gentamycin,[1]; MRSA ATCC 33591,No Synergy
same,combination effect with Norfloxacin,[1]; MRSA ATCC 33591,No Synergy
same,combination effect with Oxacillin,[1]; MRSA ATCC 33591,No Synergy
same,combination effect with Tetracycline,[1]; MRSA ATCC 33591,No Synergy
same,combination effect with Vancomycin,[1]; MRSA ATCC 33591,Susceptible
same,combination effect with Norfloxacin,[1]; MRSA ATCC BAA-44,No Synergy
same,combination effect with Oxacillin,[1]; MRSA ATCC BAA-44,No Synergy
same,combination effect with Tetracycline,[1]; MRSA ATCC BAA-44,Susceptible
same,combination effect with Vancomycin,[1]; MRSA ATCC BAA-44,Susceptible
same,combination effect with Gentamycin,[1]; MRSA ATCC BAA-1707,Susceptible
same,combination effect with Norfloxacin,[1]; MRSA ATCC BAA-1707,Susceptible
same,combination effect with Oxacillin,[1]; MRSA ATCC BAA-1707,Susceptible
same,combination effect with Tetracycline,[1]; MRSA ATCC BAA-1707,Synergy
same,combination effect with Vancomycin,[1]; MRSA ATCC BAA-1707,Susceptible
same,combination effect with Gentamycin,[1]; MRSA ATCC BAA-1717,Susceptible
same,combination effect with Norfloxacin,[1]; MRSA ATCC BAA-1717,Susceptible
same,combination effect with Oxacillin,[1]; MRSA ATCC BAA-1717,Synergy
same,combination effect with Tetracycline,[1]; MRSA ATCC BAA-1717,Susceptible
same,combination effect with Vancomycin,[1]; MRSA ATCC BAA-1717,Susceptible
same,combination effect with Gentamycin,[1]; MRSA ATCC BAA-1720,Susceptible
same,combination effect with Norfloxacin,[1]; MRSA ATCC BAA-1720,No Synergy
same,combination effect with Oxacillin,[1]; MRSA ATCC BAA-1720,No Synergy
same,combination effect with Tetracycline,[1]; MRSA ATCC BAA-1720,Susceptible
same,combination effect with Vancomycin,[1]; MRSA ATCC BAA-1720,Susceptible
same,combination effect with Gentamycin,[1]; MRSA ATCC BAA-1747,Susceptible
same,combination effect with Norfloxacin,[1]; MRSA ATCC BAA-1747,Susceptible
same,combination effect with Oxacillin,[1]; MRSA ATCC BAA-1747,Susceptible
same,combination effect with Tetracycline,[1]; MRSA ATCC BAA-1747,Susceptible
same,combination effect with Vancomycin,[1]; MRSA ATCC BAA-1747,Susceptible
same,combination effect with Gentamycin,[1]; MRSA ATCC BAA-1754,Susceptible
same,combination effect with Norfloxacin,[1]; MRSA ATCC BAA-1754,Susceptible
same,combination effect with Oxacillin,[1]; MRSA ATCC BAA-1754,No Synergy
same,combination effect with Tetracycline,[1]; MRSA ATCC BAA-1754,Susceptible
same,combination effect with Vancomycin,[1]; MRSA ATCC BAA-1754,Susceptible
same,combination effect with Gentamycin,[1]; MRSA ATCC BAA-1761,Susceptible
same,combination effect with Norfloxacin,[1]; MRSA ATCC BAA-1761,No Synergy
same,combination effect with Oxacillin,[1]; MRSA ATCC BAA-1761,Susceptible
same,combination effect with Tetracycline,[1]; MRSA ATCC BAA-1761,Susceptible
same,combination effect with Vancomycin,[1]; MRSA ATCC BAA-1761,Susceptible
same,combination effect with Gentamycin,[1]; MRSA ATCC BAA-1763,Susceptible
same,combination effect with Norfloxacin,[1]; MRSA ATCC BAA-1763,No Synergy
same,combination effect with Oxacillin,[1]; MRSA ATCC BAA-1763,No Synergy
same,combination effect with Tetracycline,[1]; MRSA ATCC BAA-1763,Susceptible
same,combination effect with Vancomycin,[1]; MRSA ATCC BAA-1763,Susceptible
same,combination effect with Gentamycin,[1]; MRSA ATCC BAA-1764,Susceptible
same,combination effect with Norfloxacin,[1]; MRSA ATCC BAA-1764,Susceptible
same,combination effect with Oxacillin,[1]; MRSA ATCC BAA-1764,No Synergy
same,combination effect with Tetracycline,[1]; MRSA ATCC BAA-1764,Susceptible
same,combination effect with Vancomycin,[1]; MRSA ATCC BAA-1764,Susceptible
same,combination effect with Gentamycin,[1]; MRSA ATCC BAA-1766,Susceptible
same,combination effect with Norfloxacin,[1]; MRSA ATCC BAA-1766,Susceptible
same,combination effect with Oxacillin,[1]; MRSA ATCC BAA-1766,No Synergy
same,combination effect with Tetracycline,[1]; MRSA ATCC BAA-1766,Susceptible
same,combination effect with Vancomycin,[1]; MRSA ATCC BAA-1766,Susceptible
same,PMB + Comp,[2],None Detected
same,Comp @ 20 µM,[2],7.9 × 10^8 CFU/mL
same,MIC,S. aureus (ATCC 29213),32 to 64 µM
same,IC50,HeLa cells,36.8 µM
same,toxicity to HeLa versus normal WI38 cells,HeLa cells; comparison of TABLE 2 values,killed cancerous HeLa cells at concentrations that were not toxic to normal WI38 cells
